Measurements as given in ChEMBL document CHEMBL1153654, “Synthesis and potential anxiolytic activity of 4-amino-pyrido[2,3-b]indoles” (Bioorg Med Chem Lett, 1993).

Key:
[1] = biological target: GABA-A receptor; anion channel; assay: Displacement of [35S]TBPS from GABA-A receptor complex at low umolar concentration; type: protein-complex assay
[2] = test system: Rattus norvegicus; assay: Tested for minimum effective dose required to cause motor in coordination in Geller-Seifter model in CFY rats (route of administration is peroral 30 min before testing); type: functional; conditions: po, read-out: MED
[3] = biological target: GABA-A receptor; anion channel; assay: Displacement of [3H]flunitrazepam from GABA-A central benzodiazepine receptor of mouse brain
[4] = test system: GABA-A receptor; anion channel; assay: Displacement of [35S]TBPS from GABA-A receptor complex at low umolar concentration (insoluble); type: protein-complex assay
[5] = test system: GABA-A receptor; anion channel; assay: Displacement of [3H]flunitrazepam from GABA-A central benzodiazepine receptor of mouse brain (insoluble)

SMILES | IC50 [1] | minimal effective dose [2] | IC50 [3] | IC50 [4] | IC50 [5]
CCn1c2ccccc2c2c(N)c(C(=O)OC)c(C)nc21 | 5.9 µM | 5 mg/kg | > 100 µM |  | 
COC(=O)c1c(-c2ccccc2)nc2c(c1N)c1ccccc1n2C | 11.2 µM | 50 mg/kg | > 30 µM |  | 
C=CCOC(=O)c1c(C)nc2c(c1N)c1ccccc1n2C | 3.8 µM | 20 mg/kg | > 100 µM |  | 
Cc1nc2c(c(N)c1C(=O)O)c1ccccc1n2C | > 100 µM | > 50 mg/kg | > 100 µM |  | 
CCCOC(=O)c1c(C)nc2c(c1N)c1ccccc1n2C | 2.2 µM | 10 mg/kg | > 100 µM |  | 
COC(=O)c1c(C)nc2c(c1N)c1ccccc1n2C1CCCC1 | 80 µM | > 50 mg/kg | > 100 µM |  | 
CNc1c(C(=O)OC)c(C)nc2c1c1ccccc1n2C | 17.1 µM | 20 mg/kg | 82.3 µM |  | 
CCOC(=O)c1c(C)nc2c(c1N)c1ccccc1n2C | 4.6 µM | 10 mg/kg | > 100 µM |  | 
COC(=O)c1c(C)nc2c(c1N)c1ccccc1n2C(=O)OC | 9.5 µM | 20 mg/kg | > 30 µM |  | 
COC(=O)c1c(C)[nH]c2nc3ccccc3c-2c1N |  | 5 mg/kg |  | Insoluble | Insoluble
COC(=O)c1c(C)nc2c(c1N)c1ccccc1n2C | 14.6 µM | 10 mg/kg | > 100 µM |  | 
CCOC(=O)c1c(C)nc2c(c1N)c1ccccc1n2Cc1ccccc1 |  | > 50 mg/kg |  | Insoluble | Insoluble
Cc1[nH]c2nc3ccccc3c-2c(N)c1C(N)=O | > 100 µM | > 50 mg/kg | > 100 µM |  | 
COP(=O)(OC)c1c(C)nc2c(c1N)c1ccccc1n2C | > 30 µM | > 20 mg/kg | > 30 µM |  | 
COC(=O)c1c(C)nc2c(c1N)c1cc(Cl)ccc1n2C |  | 50 mg/kg |  | Insoluble | Insoluble
Cc1nc2c(c(N)c1CO)c1ccccc1n2C | > 100 µM | > 50 mg/kg | > 100 µM |  | 
Cc1nc2c(c(N)c1C(=O)OCc1ccccc1)c1ccccc1n2C | > 30 µM | > 50 mg/kg | > 30 µM |  | 
CN1C(=O)CN=C(c2ccccc2)c2cc(Cl)ccc21 [DIAZEPAM] |  | 2.5 mg/kg |  |  | 
